In BindingDB's records for doi:10.1016/j.bmcl.2010.06.050 (Universit&#224, 2010) one finds IC50 data, which are given here for 2 compounds.

A value given as a limit tells only on which side of the number the result lay.

The target of assay [1] is Monoglyceride lipase MGLL (Mus musculus) (UniProt O35678). The experiment in a line: Inhibition of mouse brain MAGL.
Assay [2] deals with T1, Fatty-acid amide hydrolase 1 (Mus musculus, UniProt O08914).
T1 sequence (O08914 whole entry): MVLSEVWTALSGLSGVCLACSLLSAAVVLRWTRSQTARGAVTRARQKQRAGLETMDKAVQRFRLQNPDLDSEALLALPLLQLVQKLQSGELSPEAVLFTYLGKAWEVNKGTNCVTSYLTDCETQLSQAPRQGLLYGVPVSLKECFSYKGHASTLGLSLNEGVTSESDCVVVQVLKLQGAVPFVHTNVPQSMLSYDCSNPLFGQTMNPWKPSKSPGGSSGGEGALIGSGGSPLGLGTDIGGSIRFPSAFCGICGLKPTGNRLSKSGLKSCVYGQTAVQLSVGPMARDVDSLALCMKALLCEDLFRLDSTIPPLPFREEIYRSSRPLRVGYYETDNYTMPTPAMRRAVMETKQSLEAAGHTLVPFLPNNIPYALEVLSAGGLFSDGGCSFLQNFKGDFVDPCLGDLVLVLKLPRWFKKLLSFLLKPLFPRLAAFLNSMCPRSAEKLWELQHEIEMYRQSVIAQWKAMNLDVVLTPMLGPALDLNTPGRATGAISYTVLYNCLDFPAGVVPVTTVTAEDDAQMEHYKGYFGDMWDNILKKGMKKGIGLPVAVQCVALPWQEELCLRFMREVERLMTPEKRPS
Kind of assay: Inhibition of mouse brain FAAH assessed as conversion of [3H-ethanolamine]AEA to [3H]ethanolamine by scintillation counting.

Chain of Monoglyceride lipase MGLL (Mus musculus) (O35678 whole entry, looked up): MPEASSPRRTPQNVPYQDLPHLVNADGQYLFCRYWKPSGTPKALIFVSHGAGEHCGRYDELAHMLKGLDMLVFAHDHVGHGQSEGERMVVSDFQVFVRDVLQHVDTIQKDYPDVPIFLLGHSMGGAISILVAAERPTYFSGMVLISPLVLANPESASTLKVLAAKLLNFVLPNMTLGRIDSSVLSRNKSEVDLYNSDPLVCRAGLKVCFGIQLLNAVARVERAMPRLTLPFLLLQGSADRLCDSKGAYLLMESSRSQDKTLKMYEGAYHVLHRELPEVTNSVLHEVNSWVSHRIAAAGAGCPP

For the compound `CC(=NOC(=O)Nc1ccccc1)c1cccc(-c2cccs2)c1` [1-(3-Thiophen-2-yl-phenyl)-ethanone, O-(phenylaminocarbonyl)oxime], in assay [1], the IC50 is more than 10 µM. For `O=C(Nc1ccccc1)ON=C1CCC(c2ccccc2)CC1` (configuration not stated) [4-Phenyl-cyclohexanone, O-(phenylaminocarbonyl)oxime], in assay [2], the IC50 was more than 50 µM.
